One data set deals with T1, Substance-K receptor (Homo sapiens, UniProt P21452).
T1 sequence (P21452 whole entry): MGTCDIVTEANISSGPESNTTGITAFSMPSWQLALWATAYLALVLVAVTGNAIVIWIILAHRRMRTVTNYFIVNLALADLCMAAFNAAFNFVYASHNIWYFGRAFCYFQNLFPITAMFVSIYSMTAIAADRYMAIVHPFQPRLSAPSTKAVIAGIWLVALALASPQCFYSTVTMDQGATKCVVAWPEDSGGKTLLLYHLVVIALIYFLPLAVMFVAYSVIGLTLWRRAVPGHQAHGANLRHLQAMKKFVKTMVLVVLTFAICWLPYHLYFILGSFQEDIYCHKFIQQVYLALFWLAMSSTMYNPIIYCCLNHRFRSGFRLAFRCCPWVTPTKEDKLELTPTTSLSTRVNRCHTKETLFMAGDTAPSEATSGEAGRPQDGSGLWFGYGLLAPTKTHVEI
Test: not given
The following applies: cho. Type of data set: cell membranes, CHO, Membrane.
For the compound `CCN(CC)CCNC(=O)c1cc(S(C)(=O)=O)ccc1OC` [TIAPRIDE], the IC50 entry was “Not Active”.
Regarding `Clc1ccccc1CN1CCc2sccc2C1` [TICLOPIDINE], the IC50 result is recorded as “Not Active”.
`NC1CCN(c2nc3c(cc2F)c(=O)c(C(=O)O)cn3-c2ccc(F)cc2F)C1` (centres undefined) [TOSUFLOXACIN]: the IC50 entry was “Not Active”.
`CC(c1cc2ccccc2s1)N(O)C(N)=O` (centres undefined) [ZILEUTON]: the IC50 result was “Not Active”.
Take MANGANESE CHLORIDE ANHYDROUS: the IC50 result is reported as “Not Active” and the Ki entry is reported as “Not Active”.
Consider SODIUM ORTHOVANAD, for which the IC50 result is reported as “Not Active” and the Ki entry was “Not Active”.

The target of another data set is Sodium-dependent noradrenaline transporter (Homo sapiens, UniProt P23975). Briefly: DRUGMATRIX: Norepinephrine Transporter radioligand binding (ligand: [125I] RTI-55). It is filed as cell membranes, MDCK, Membrane. The following applies: mdck; Not Active = under 50% inhibition at 10 µM.
Sequence of Sodium-dependent noradrenaline transporter (P23975 whole entry): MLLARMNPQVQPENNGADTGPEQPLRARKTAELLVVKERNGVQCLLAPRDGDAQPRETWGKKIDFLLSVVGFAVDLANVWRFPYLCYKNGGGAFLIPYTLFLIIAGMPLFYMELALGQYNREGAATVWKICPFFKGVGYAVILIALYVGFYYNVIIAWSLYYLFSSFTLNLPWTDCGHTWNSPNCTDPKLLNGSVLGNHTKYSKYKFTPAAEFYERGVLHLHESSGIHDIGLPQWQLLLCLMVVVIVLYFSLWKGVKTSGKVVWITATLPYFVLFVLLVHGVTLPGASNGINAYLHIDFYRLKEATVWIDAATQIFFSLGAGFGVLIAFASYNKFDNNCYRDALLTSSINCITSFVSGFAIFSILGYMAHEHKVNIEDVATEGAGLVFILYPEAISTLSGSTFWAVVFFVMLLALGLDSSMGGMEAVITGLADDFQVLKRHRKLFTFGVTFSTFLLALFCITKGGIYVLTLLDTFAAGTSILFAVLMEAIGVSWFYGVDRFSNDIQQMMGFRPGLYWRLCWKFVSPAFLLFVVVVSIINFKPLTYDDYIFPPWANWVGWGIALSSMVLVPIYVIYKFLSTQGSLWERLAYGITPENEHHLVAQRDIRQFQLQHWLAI
As for `CCN(CC)CCNC(=O)c1cc(S(C)(=O)=O)ccc1OC` [TIAPRIDE], the IC50 entry is listed as “Not Active”.
In the case of `Clc1ccccc1CN1CCc2sccc2C1` [TICLOPIDINE], the IC50 entry is on record as “Not Active”.
As for `NC1CCN(c2nc3c(cc2F)c(=O)c(C(=O)O)cn3-c2ccc(F)cc2F)C1` (centres undefined) [TOSUFLOXACIN], the IC50 entry is listed as “Not Active”.
As for `CC(c1cc2ccccc2s1)N(O)C(N)=O` (centres undefined) [ZILEUTON], the IC50 result is “Not Active”.
MANGANESE CHLORIDE ANHYDROUS: the IC50 result was “Not Active” and the Ki entry was “Not Active”.
For the compound SODIUM ORTHOVANAD, the IC50 entry was “Not Active” and the Ki result was “Not Active”.

The target in a further data set is Prostaglandin G/H synthase 1 (Homo sapiens, UniProt P23219). Briefly: biochemical. Type of data set: tissue-based, Platelet. The following applies: platelet.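 Note: inhibition of COX-1 enzyme activity, with arachidonic acid supplied as substrate; in other assays of this panel Not Active means under 50% inhibition at 10 µM.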
Sequence of Prostaglandin G/H synthase 1 (P23219 whole entry): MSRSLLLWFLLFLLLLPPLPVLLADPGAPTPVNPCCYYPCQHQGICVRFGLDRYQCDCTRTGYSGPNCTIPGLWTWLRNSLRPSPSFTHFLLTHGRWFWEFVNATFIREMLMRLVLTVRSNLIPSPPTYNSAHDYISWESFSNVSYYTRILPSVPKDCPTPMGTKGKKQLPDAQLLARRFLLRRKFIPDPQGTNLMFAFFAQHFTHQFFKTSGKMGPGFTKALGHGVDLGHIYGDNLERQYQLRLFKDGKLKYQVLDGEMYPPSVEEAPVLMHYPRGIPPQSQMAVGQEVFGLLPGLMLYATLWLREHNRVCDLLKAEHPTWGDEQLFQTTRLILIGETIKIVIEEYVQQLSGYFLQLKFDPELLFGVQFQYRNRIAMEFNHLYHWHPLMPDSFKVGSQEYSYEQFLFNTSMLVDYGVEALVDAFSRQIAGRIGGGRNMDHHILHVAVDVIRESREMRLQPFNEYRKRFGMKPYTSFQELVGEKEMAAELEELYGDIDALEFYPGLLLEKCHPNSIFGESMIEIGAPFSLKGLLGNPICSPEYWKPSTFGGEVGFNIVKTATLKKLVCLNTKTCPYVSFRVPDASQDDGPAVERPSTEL
On to `CCN(CC)CCNC(=O)c1cc(S(C)(=O)=O)ccc1OC` [TIAPRIDE], for which the IC50 result was “Not Active”.
The same measure, in the same setting: with `Clc1ccccc1CN1CCc2sccc2C1` [TICLOPIDINE] the entry was “Not Active”.
On the same count and under the same terms, with `NC1CCN(c2nc3c(cc2F)c(=O)c(C(=O)O)cn3-c2ccc(F)cc2F)C1` (centres undefined) [TOSUFLOXACIN] the entry was “Not Active”; with `CC(c1cc2ccccc2s1)N(O)C(N)=O` (centres undefined) [ZILEUTON], “Not Active”.
For the compound MANGANESE CHLORIDE ANHYDROUS, the IC50 result is recorded as “Not Active” and the Ki entry is given as “Not Active”.
On to SODIUM ORTHOVANAD, for which the IC50 entry is listed as “Not Active” and the Ki result is given as “Not Active”.

In the next data set the target is T2, Cytochrome P450 1A2 (Homo sapiens, UniProt P05177). Note: in other assays of this panel Not Active means under 50% inhibition at 10 µM.
T2 sequence (P05177 whole entry): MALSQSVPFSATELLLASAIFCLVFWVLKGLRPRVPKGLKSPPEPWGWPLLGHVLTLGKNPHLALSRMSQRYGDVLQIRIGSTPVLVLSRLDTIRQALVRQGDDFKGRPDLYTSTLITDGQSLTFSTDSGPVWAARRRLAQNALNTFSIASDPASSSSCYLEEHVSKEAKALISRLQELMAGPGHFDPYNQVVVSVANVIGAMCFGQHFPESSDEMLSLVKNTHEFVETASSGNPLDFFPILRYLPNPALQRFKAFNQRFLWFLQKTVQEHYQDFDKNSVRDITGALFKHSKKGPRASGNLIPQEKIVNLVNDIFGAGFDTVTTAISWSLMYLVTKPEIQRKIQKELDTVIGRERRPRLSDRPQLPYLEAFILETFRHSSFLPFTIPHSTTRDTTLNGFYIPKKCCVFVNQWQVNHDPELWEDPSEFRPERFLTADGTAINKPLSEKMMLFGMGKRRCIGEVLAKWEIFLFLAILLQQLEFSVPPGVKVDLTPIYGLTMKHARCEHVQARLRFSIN
Test: not given
The settings on record: bti-tn-5b1-4.
Regarding `CCN(CC)CCNC(=O)c1cc(S(C)(=O)=O)ccc1OC` [TIAPRIDE], the IC50 entry was “Not Active” and the Ki result was “Not Active”.
Take `Clc1ccccc1CN1CCc2sccc2C1` [TICLOPIDINE]: the IC50 result is “Not Active” and the Ki entry was “Not Active”.
As for `NC1CCN(c2nc3c(cc2F)c(=O)c(C(=O)O)cn3-c2ccc(F)cc2F)C1` (centres undefined) [TOSUFLOXACIN], the IC50 result is “Not Active” and the Ki result is “Not Active”.
Regarding `CC(c1cc2ccccc2s1)N(O)C(N)=O` (centres undefined) [ZILEUTON], the IC50 result is “Not Active” and the Ki result is “Not Active”.
Turning to MANGANESE CHLORIDE ANHYDROUS, the IC50 result is reported as “Not Active” and the Ki entry is “Not Active”.
For the compound SODIUM ORTHOVANAD, the IC50 result is given as “Not Active” and the Ki entry is listed as “Not Active”.

The target in a further data set is T3, Polyunsaturated fatty acid lipoxygenase ALOX15 (Oryctolagus cuniculus, UniProt P12530).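 Note: inhibition of 15-lipoxygenase enzyme activity measured with linoleic acid as the substrate; in other assays of this panel Not Active means under 50% inhibition at 10 µM.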
T3 sequence (P12530 whole entry): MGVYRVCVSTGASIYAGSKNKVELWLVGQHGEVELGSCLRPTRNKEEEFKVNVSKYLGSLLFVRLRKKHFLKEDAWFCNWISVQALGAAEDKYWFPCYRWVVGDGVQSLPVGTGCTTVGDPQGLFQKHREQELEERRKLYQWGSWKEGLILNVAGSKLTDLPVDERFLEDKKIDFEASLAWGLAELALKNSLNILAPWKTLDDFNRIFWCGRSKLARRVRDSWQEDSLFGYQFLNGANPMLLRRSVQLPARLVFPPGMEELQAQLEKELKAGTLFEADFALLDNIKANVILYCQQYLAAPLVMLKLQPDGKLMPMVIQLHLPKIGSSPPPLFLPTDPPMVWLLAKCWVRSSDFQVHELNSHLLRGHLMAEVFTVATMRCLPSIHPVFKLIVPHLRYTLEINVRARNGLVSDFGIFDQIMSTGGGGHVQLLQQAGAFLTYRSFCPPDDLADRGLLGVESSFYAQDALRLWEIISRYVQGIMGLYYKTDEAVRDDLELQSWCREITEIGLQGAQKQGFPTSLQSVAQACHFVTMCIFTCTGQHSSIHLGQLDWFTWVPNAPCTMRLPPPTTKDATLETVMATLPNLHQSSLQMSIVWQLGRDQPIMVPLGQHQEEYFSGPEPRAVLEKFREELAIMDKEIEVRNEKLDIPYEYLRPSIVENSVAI
Briefly: biochemical. It is filed as tissue-based, Reticulocytes. The following applies: reticulocytes.
Regarding `CCN(CC)CCNC(=O)c1cc(S(C)(=O)=O)ccc1OC` [TIAPRIDE], the IC50 result is listed as “Not Active”.
In the case of `Clc1ccccc1CN1CCc2sccc2C1` [TICLOPIDINE], the IC50 result was “Not Active”.
For the compound `NC1CCN(c2nc3c(cc2F)c(=O)c(C(=O)O)cn3-c2ccc(F)cc2F)C1` (centres undefined) [TOSUFLOXACIN], the IC50 result is recorded as “Not Active”.
In the case of `CC(c1cc2ccccc2s1)N(O)C(N)=O` (centres undefined) [ZILEUTON], the IC50 entry is on record as “Not Active”.
As for MANGANESE CHLORIDE ANHYDROUS, the IC50 entry is recorded as “Not Active” and the Ki result is on record as “Not Active”.
SODIUM ORTHOVANAD: the IC50 result was “Not Active” and the Ki result is on record as “Not Active”.

For the origin of these results see ChEMBL document CHEMBL1909046, “DrugMatrix in vitro pharmacology data”.
